Paper PMC3025356, “Mechanism of the Ca^2+-Dependent Interaction between S100A4 and Tail Fragments of Nonmuscle Myosin Heavy Chain IIA” (Journal of Molecular Biology, 2011)
Like-named read-outs stand apart in the source and are kept apart here.

Tests used:
M111 = assay: NMR ^1H,^15N HSQC of labelled M111 on addition of full-length S100A4; format: binding, human; settings: 1.5 molar excess of full-length S100A4
Description: Fig. 7 Chemical shift changes in the ^1H,^15N HSQC spectra of ^13C,^15N-labelled M111 on addition of full-length S100A4. Superposition of the spectra in free form (black) and in the presence of a 1.5 molar excess of S100A4 (red). Resonance assignments derived from the analysis of triple-resonance spectra are marked. In addition to sharp intense cross-peaks, the spectra contain broad low-intensity peaks that cannot be assigned due to low sensitivity.
All NMR samples were prepared in 20 mM 4-morpholineethanesulfonic acid, 20 mM NaCl, 5 mM CaCl2, and 5% D2O buffer (pH 6.1). DTT (2 mM) was added to the samples containing S100A4. Titration experiments were carried out at 0.2 mM S100A4 using 10 mM peptide solutions. Spectra for M111 backbone resonance assignments were measured using 0.4 mM protein solution. NMR spectra were obtained at 298 K using Bruker AVANCE DRX 600 or AVANCE DRX 800 spectrometers, which are both equipped with cryoprobes. Proton chemical shifts were referenced to external 2,2-dimethyl-2-silapentane-5-sulfonate. The ^15N and ^13C chemical shifts were referenced indirectly using recommended gyromagnetic ratios.[44] Spectra were processed with TopSpin (Bruker) and analysed using Analysis.[45] Three-dimensional HNCO, HN(CA)CO, HNCA, HN(CO)CA, HNCACB, and HN(CO)CACB experiments were used for the sequential assignment of the backbone NH, N, CO, C^α, and C^β resonances.

[1] = cited from earlier work
Text: Apart from the different methods used to study Ca^2+ binding, which have sensitivities over different concentration ranges, part of the variability in Kd values in the literature may arise from the self-association of S100A4. There is a general consensus[12,13,17,21,22] that S100A4 exists predominantly as a dimer at micromolar concentrations (indeed, this can lead to difficulties in interpreting literature values for stoichiometries quoted as ‘moles of Ca^2+ bound per mole of S100A4’ if the latter is not stated explicitly as being per monomer or per dimer). In the absence of Ca^2+, monomeric S ... || In the absence of added Ca^2+ (i.e., where the free “contaminant” [Ca^2+] in buffers would be of the order of 1 μM), mixing S100A4 with excess Quin-2 produced a small-amplitude signal (corresponding to 0.1 mol of Ca^2+ per mole of S100A4 monomer) with a rate constant of around 1 s^− 1.

[2] = Stopped-flow Quin-2 fluorescence, Ca^2+ dissociation from / binding to S100A4 constructs (no target)
Text: In order to increase the signal-to-noise ratio of the Ca^2+ dissociation transients, we used Quin-2 as combined fluorescent indicator and high-affinity chelator.[19,20] These measurements confirmed that Ca^2+ dissociated from wild-type protein with a rate constant of 16 s^− 1 (Fig. 3a; cf. 20 s^− 1 for the tyrosine signal). Given the poor signal-to-noise ratio of the tyrosine signal, the difference is barely significant but may reflect the fact that the Quin-2 signal represents at least a two-step sequential reaction (Ca^2+ dissociation from S100AS4, followed by rapid binding to Quin-2).
Fig. 3 (a) Dissociation of Ca^2+ from wild-type S100A4 (black), E33Q mutant (blue), and D63N mutant (red), as monitored by Quin-2 fluorescence. […] The records for the mutants were vertically offset for clarity. (b) Ca^2+ binding to S100A4 as determined from the amplitude of the resolved transient (k ≈ 20 s^− 1) when 6.5 μM S100A4 was preincubated with various added [Ca^2+] and then mixed with 100 μM Quin-2. The amplitude was converted into a bound concentration from an independent calibration using the same Quin-2 solution and known free [Ca^2+]. […] While either model could account for the data, the measured stoichiometry from ITC (Table 1) favors the cooperative model.
(§1) Stopped-flow measurements were carried out using an SX18-MV apparatus (Applied Photophysics Ltd., Leatherhead, UK) with a dead time of 1.5 ms.[40] Records were generally captured on a logarithmic time base. Absorption (turbidity) measurements were usually recorded using a 10-mm pathlength, while fluorescence was recorded with a 2-mm pathlength for excitation and emission. The stated concentrations of components refer to the reaction chamber after mixing, unless otherwise indicated. Tyrosine fluorescence was excited at 280 nm, and the emission was collected through a UG11 bandpass filter plus a 305-nm longpass filter.[18] Fluorescein fluorescence was excited at 480 nm, and the emission was detected through a 515-nm longpass filter. Quin-2 fluorescence was measured by excitation at 336 nm, and emission was collected with a 455-nm longpass filter. For simultaneous recording of light scatter, a second channel was monitored through a UG11 filter. Rate constants were obtained by fitting to single-exponential or double-exponential functions using Kaleidagraph (Synergy Software) or Applied Photophysics Pro-Data software. Modeling of kinetic schemes was performed using Berkeley Madonna software.

[3] = Stopped-flow tyrosine fluorescence, Ca^2+ dissociation from S100A4 constructs; format: binding
Description: as §1
Dissociation of Ca2+ from wild type S100A4 (black), Y19F mutant (blue) and Y75F mutant (red) monitored by tyrosine fluorescence. 13 M of each S100A4 construct plus 100 µM Ca2+ was mixed with 200 µM EGTA (reaction chamber concentrations) and the tyrosine fluorescence monitored. The buffer was 20 mM NaCl, 10 mM HEPES, 2 mM DTT at pH 7.5 and 20 °C. Fits to a single exponential function yielded rate constants of 20 s-1, 113 s-1 and 45 s-1 for wild-type, Y19F mutant and Y75F mutant respectively. (d) Dissociation of Ca2+ from wild type S100A4 (black), E33Q mutant (blue) and D63N mutant (red) monitored by tyrosine fluorescence. 13 M of each S100A4 construct plus 15 M Ca2+ was mixed with 200 M EGTA (reaction chamber concentrations) and the tyrosine fluorescence monitored. Fits to a single exponential function yielded rate constants of 22 s-1 and 49 s-1 for wild-type and E33Q construct respectively, while that […]
The records for the mutants were vertically offset for clarity in both […]

Question: Which “resonance broadening in M111 on S100A4 addition” value (M111) does the source give for “S100A4: recombinant S100A4 expressed in E. coli BL21(DE3)” here?
Answer: additional broadening of resonances in the 1926–1939 region

Question: What about the “protein concentration at which monomer is detected” value ([1]; absence of Ca^2+) of the same substance?
Answer: below 2 μM

Question: And the “concentration at which tetrameric and higher aggregates become significant” value ([1]; presence of Ca^2+)?
Answer: exceeding 20 μM

Question: And the “Ca^2+ affinity of tetramer relative to dimer” value ([1]; suggested by ultracentrifuge data)?
Answer: about 20 -fold

Question: And the “kobs, Ca^2+ dissociation, no target (k− 1)” value ([2]; 10 μM S100A4 + 50 μM Ca^2+ mixed with 100 μM Quin-2, pH 7.5, 20 °C)?
Answer: 17 s^− 1

Question: And the Kd ([2]; model for Fig. 3b data, read-out: Kd, EF2 site (alternative model))?
Answer: 5 µM

Question: And the Kd ([2]; model for Fig. 3b data, read-out: Kd, first Ca^2+ at EF2 of dimer (cooperative model))?
Answer: 100 µM

Question: What about the Kd ([2]; model for Fig. 3b data, read-out: Kd, second Ca^2+ at EF2 of dimer (cooperative model)) of the same substance?
Answer: 1.7 µM

Question: What about the “amplitude without added Ca^2+” value ([2]; no added Ca^2+, excess Quin-2) of the same substance?
Answer: 0.1 mol of Ca^2+ per mole of S100A4 monomer

Question: And the “rate constant without added Ca^2+” value ([2]; no added Ca^2+, excess Quin-2)?
Answer: around 1 s^− 1

Question: What about the Kd ([2]; optically silent EF1 model for Fig. 3b data, read-out: Kd, EF1 site (alternative model)) of the same substance?
Answer: 0.25 µM

Question: What about the “Ca^2+ bound per monomer from calibrated Quin-2 amplitude” value ([2]; resolved signal, 6.5 μM S100A4, 100 μM Quin-2) of the same substance?
Answer: one Ca^2+ bound per S100A4 monomer

Question: And the “Ca^2+ dissociation rate constant (Quin-2)” value ([2]; single exponential fit, no target)?
Answer: 16 s^− 1

Question: And the “rate constant of second slow phase of Ca^2+ dissociation” value ([2]; some preparations)?
Answer: 0.4–4 s^− 1

Question: What about the “Ca^2+ dissociation rate constant (tyrosine)” value ([3]; 13 μM S100A4 + 15 μM Ca^2+ mixed with 200 μM EGTA) of the same substance?
Answer: 22 s^− 1

Question: What about the “Ca^2+ dissociation rate constant (tyrosine)” value ([3]; 13 μM S100A4 + 100 μM Ca^2+ mixed with 200 μM EGTA, 20 mM NaCl, 10 mM Hepes, 2 mM DTT, pH 7.5, 20 °C) of the same substance?
Answer: 20 s^− 1
